# In article PMC10475101, “Selective steroidogenic cytochrome P450 haem iron ligation by steroid-derived isonitriles” (Communications Chemistry, 2023):
# pIC50, pKd: −log10 of the molar value. “Also recorded” adds a separate entry of the source.
# Assays:
# CYP106A2 = CYP106A2 (Priestia megaterium, UniProt Q06069); test: Absorbance difference spectra titration of CYP106A2; type: binding, bacterial; conditions: 1 µM CYP106A2; for difference spectrum increase / λmax on binding to CYP106A2: 393 nm = type I, 435 nm = heme Fe-isonitrile bond
# Chain of CYP106A2 (Q06069 whole entry): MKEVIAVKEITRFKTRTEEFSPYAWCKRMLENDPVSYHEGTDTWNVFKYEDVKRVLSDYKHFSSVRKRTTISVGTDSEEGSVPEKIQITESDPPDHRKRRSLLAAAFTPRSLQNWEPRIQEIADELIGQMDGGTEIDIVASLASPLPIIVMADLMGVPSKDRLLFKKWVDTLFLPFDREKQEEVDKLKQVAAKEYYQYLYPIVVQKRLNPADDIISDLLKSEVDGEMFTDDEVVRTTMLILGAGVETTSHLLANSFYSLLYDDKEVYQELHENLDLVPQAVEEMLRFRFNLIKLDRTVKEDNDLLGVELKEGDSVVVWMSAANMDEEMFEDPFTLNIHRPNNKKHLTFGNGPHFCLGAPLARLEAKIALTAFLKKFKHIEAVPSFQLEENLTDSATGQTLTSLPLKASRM
# Method: Fig. 5 CYP106A2 interaction with steroidal isonitriles. […] Maximum concentration of 2 (light blue trace) is 20 µM. […] Maximum concentration of 4 is ~10 µM (blue trace). C Overlay of 800 MHz ^1H,^15N-TROSY-HSQC spectra of ^15N-Gly-labeled CYP106A2 with levopimaric acid p-benzoquinone Diels-Alder adduct bound after reduction with sodium dithionite and treatment with carbon monoxide (red), or with 7,17-(bis)isonitrile 4 (blue) after anaerobic reduction with sodium dithionite.
# CYP3A4 = target: T1, CYP3A4 (Homo sapiens, UniProt P08684); test: in vitro; type: binding
# T1 construct: made in house
# T1 sequence (P08684 whole entry): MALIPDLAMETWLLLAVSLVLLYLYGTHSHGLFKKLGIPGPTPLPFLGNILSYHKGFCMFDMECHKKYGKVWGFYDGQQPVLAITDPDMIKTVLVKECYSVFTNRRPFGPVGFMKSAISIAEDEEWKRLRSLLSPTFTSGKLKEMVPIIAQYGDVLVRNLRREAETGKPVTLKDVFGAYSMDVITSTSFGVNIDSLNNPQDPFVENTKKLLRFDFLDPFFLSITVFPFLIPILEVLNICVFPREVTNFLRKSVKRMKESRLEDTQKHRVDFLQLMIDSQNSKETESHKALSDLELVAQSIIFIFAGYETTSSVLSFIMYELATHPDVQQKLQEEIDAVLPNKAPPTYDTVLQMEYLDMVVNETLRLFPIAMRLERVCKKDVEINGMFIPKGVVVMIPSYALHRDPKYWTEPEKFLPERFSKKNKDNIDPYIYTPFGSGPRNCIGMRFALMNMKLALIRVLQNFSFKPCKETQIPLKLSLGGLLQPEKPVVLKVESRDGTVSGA
# Method: (§1) (Adapted from DeVore, et al.)[25] Ligand interaction with the heme iron was evaluated by titrating ligands into a cuvette containing purified CYP17A1[14], CYP2D6 L230D/L231R[26], or CYP3A4[27] and measured using a UV-visible scanning spectrophotometer. Enzyme was diluted to 0.2 µM in 100 mM potassium phosphate buffer (pH 7.4), 20% glycerol, and 100 mM sodium chloride and divided equally between two 5 mL cuvettes to evaluate high-affinity binding. Ligands dissolved in dimethylsulfoxide (DMSO) were added to the sample cuvette and an equal volume of DMSO to the reference cuvette. Difference spectra were recorded from 300 to 500 nm after equilibration of enzyme and ligand. Binding to the enzyme was measured as the difference in maximal and minimal absorbance: A387—A419 for pregnanolone and 3-formyl pregnanolone, and A435—A393 for compound 1 with CYP17A1; A434—A414 for compound 1 with CYP3A4 and CYP2D6. The dissociation constant and maximum spectral change were calculated using tight-binding or quadratic equation. All data fitting was accomplished using GraphPad Prism 9. Details of fitting are provided in Supplementary Information, and numerical data used to generate graphs in Figs. 2, 4 and 5 are provided in Supplementary Data 3 in Excel format.
# CYP17A1 [1] = target: T2, CYP17A1 (Homo sapiens, UniProt P05093); test: biochemical
# T2 construct: made in house
# T2 sequence (P05093 24-508 limits assumed): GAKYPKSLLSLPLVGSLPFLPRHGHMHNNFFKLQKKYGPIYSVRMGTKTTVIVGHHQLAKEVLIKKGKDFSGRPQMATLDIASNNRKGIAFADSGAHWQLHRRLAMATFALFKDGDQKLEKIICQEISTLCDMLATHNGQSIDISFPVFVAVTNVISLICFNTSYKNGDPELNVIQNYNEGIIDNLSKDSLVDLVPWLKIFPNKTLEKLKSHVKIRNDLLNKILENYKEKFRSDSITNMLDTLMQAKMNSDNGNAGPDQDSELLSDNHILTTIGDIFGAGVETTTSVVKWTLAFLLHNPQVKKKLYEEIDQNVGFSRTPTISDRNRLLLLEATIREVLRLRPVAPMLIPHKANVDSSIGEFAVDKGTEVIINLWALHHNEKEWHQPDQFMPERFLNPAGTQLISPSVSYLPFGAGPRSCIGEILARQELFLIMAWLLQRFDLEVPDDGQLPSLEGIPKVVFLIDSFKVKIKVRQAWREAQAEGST
# Method: Metabolic activity of CYP17A1 was evaluated by measuring 17α-hydroxylation of progesterone as detected by HPLC with UV detection at 240 nm. A 1:4 ratio of CYP17A1 to recombinant NADPH-cytochrome P450 reductase was mixed and incubated on ice for 20 min. […] Reaction vials were warmed to 37 °C for 3 min, then catalysis was initiated by adding NADPH to a final concentration of 1 mM. After 10 min, metabolism was quenched by adding 300 µL of 20% trichloroacetic acid and placed on ice. The reaction vials were centrifuged to pellet the precipitated protein, then the supernatant was injected onto a C18 column for HPLC identification of product. Metabolite elution was normalized to β-estradiol as an internal standard. A standard curve of known product concentrations was used to convert normalized area under curve to amount of product produced. A four-parameter variable-slope equation was used to fit the data and calculate IC50 values for inhibitors using GraphPad Prism 9.
# 195 Metabolic activity of CYP17A1 was evaluated by measuring 17α-hydroxylation of progesterone as detected
# 196 by HPLC with UV detection at 240 nm. A 1:4 ratio of CYP17A1 to recombinant NADPH-cytochrome P450
# 197 reductase was mixed and incubated on ice for 20 minutes. This mixture was added to buffer (50 mM Tris, pH
# 199 Reaction vials were warmed to 37 °C for three minutes, then catalysis was initiated by adding NADPH to a
# 200 final concentration of 1 mM. After 10 minutes, metabolism was quenched by adding 300 µL of 20%
# 201 trichloroacetic acid and placed on ice. The reaction vials were centrifuged to pellet the precipitated protein,
# 202 then the supernatant was injected onto a C18 column (Phenomenex, Luna, 50 x 4.6 mm) for HPLC. The 30-
# 203 minute HPLC method ran at 0.8 mL/min and started with a mobile phase of 60% acetonitrile, 40% water with
# 204 0.2% acetic acid for five minutes, in creased to 80% acetonitrile over 10 minutes, held at 80% acetonitrile for
# 205 five minutes, 100% acetonitrile for five minutes, then returned to 60% acetonitrile to prepare for the next
# 206 sample. Metabolite elution was normalized to β-estradiol as an internal standard. A standard curve of known
# 207 product concentrations was used to convert normalized area under curve to amount of product produced. A
# 208 four-parameter variable-slope equation (Y=Ymin + (Ymax-Ymin)/(1+(IC50/X)^(Hill Slope))) was used to fit the data
# 209 and calculate IC50 values for inhibitors using GraphPad Prism 9.
# CYP17A1 [2] = target: T3, CYP17A1 (Homo sapiens, UniProt P05093); test: Ligand binding assay (UV-visible difference spectra titration); conditions: for Soret peak after titration (heme spectral shift from 417 nm water-bound): ferric CYP17A1, 430 nm = Fe—C isonitrile bond, 424 nm = type II Fe—N
# T3 construct: made in house
# T3 sequence (P05093 1-508): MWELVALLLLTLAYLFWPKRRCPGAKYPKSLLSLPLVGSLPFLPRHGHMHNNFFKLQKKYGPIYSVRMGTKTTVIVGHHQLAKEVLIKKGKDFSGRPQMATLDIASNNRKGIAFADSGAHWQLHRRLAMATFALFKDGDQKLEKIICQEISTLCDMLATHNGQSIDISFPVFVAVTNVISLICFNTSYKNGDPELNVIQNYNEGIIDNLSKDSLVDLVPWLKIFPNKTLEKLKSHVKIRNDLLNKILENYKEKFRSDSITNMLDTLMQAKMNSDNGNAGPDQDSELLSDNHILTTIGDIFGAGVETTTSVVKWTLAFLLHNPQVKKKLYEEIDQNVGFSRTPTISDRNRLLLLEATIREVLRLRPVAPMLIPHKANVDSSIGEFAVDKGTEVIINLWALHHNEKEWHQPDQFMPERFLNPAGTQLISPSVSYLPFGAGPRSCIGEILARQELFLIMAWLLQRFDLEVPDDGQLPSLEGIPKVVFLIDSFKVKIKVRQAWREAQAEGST
# Method: as §1
Structure (SMILES),spectral response / binding mode on CYP106A2 (CYP106A2),difference spectrum increase / λmax on binding to CYP106A2 (CYP106A2) [nm],Soret peak after titration (heme spectral shift from 417 nm water-bound) (CYP17A1 [2]) [nm],further results
[C-]#[N+]C1C=C2C[C@@H](OC=O)CC[C@]2(C)[C@H]2CC[C@]3(C)[C@@H]([N+]#[C-])CC[C@H]3[C@H]12 (stereo partly shown) [Compound 4],does form an iron-isonitrile bond; also recorded: bind with the shift expected for Fe—CN—R bond formation,435,,
"CC(=O)[C@H]1CC[C@H]2[C@@H]3CC[C@H]4C[C@@H](OC=O)CC[C@]4(C)[C@H]3CC[C@]12C [3β-formyl-5α-pregnanalone, reference compound]",,,,"Kd fold higher than 20-(R)-1 (CYP3A4; CYP3A4, parent steroid versus 20-(R)-1): ~ 20 fold; pKd (CYP3A4; protein 200 nM, 5 cm cuvette, tight-binding or quadratic equation, Fig. 4B: n = 3, 95% CI 120–215 nM, read-out: dissociation constant (Kd)): ~5.49"
C[C@]12CC[C@H](O)CC1=CC[C@@H]1[C@@H]2CC[C@]2(C)C(c3cccnc3)=CC[C@@H]12 [abiraterone],,,424,"slope of the inhibition curve (CYP17A1 [1]; CYP17A1 progesterone hydroxylation): 1.1; IC50 fold lower than for 1 (CYP17A1 [1]; abiraterone versus 1): 27 fold; pIC50 (CYP17A1 [1]; triplicate, four-parameter variable-slope fit, read-out: IC50, CYP17A1 progesterone hydroxylation): 7.33; pKd (CYP17A1 [2]; protein 200 nM, 95% CI undefined to 3.8 nM, read-out: dissociation constant estimate (tight binding equation fit)): 10.36"
[C-]#[N+][C@H]1CC[C@H]2[C@@H]3CC[C@H]4C[C@@H](OC=O)CC[C@]4(C)[C@H]3CC[C@]12C [Compound 2],weak type I (substrate-like) blue shift,393,420,
[C-]#[N+][C@H]1CC[C@H]2[C@@H]3CC=C4C[C@@H](OC=O)CC[C@]4(C)[C@H]3CC[C@]12C [Compound 3],,393,,
